Source: the supplement of paper PMC10307832

Assays:
Test in all cases: relative viability (nuclei count vs DMSO), 5 days (fraction); higher = more cells survive
[1] = compound: CC1=C(CC(=O)O)c2cc(F)ccc2/C1=C\c1ccc([S+](C)[O-])cc1 [Sulindac] + CS(=O)(=O)CCNCc1ccc(-c2ccc3ncnc(Nc4ccc(OCc5cccc(F)c5)c(Cl)c4)c3c2)o1 [Lapatinib] (partner 2 µM)
How it was run: (§1)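 Lung cancer cell lines, seeded in 1536-well plates, were treated the following day by pin tool with a single drug or with five library-drug doses (not always all listed) in √10 steps on top of a fixed anchor-drug dose. Cells were fixed and nuclei stained in one step after 5 days, and nuclei were counted. Relative viability is the nuclei count for treated wells divided by that for vehicle wells, reported as medians of duplicate plates.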

[2] = compound: O=c1[nH]cc(F)c(=O)[nH]1 [5-Fluorouracil] + Nc1ncn([C@H]2C[C@H](O)[C@@H](CO)O2)c(=O)n1 [Decitabine] (partner 2 µM)
How it was run: as §1

[3] = compound: O=c1[nH]cc(F)c(=O)[nH]1 [5-Fluorouracil] + CC(=O)c1c(C)c2cnc(Nc3ccc(N4CCNCC4)cn3)nc2n(C2CCCC2)c1=O [Palbociclib] (partner 0.5 µM)
How it was run: as §1

[4] = compound: O=c1[nH]cc(F)c(=O)[nH]1 [5-Fluorouracil] + CS(=O)(=O)N1CCN(Cc2cc3nc(-c4cccc5[nH]ncc45)nc(N4CCOCC4)c3s2)CC1 [Pictilisib] (partner 1 µM)
How it was run: as §1

Row | Cell Line | relative viability ([1]; first compound 0.08 µM) | relative viability ([1]; first compound 0.253 µM) | relative viability ([1]; first compound 0.8 µM) | relative viability ([1]; first compound 2.53 µM) | relative viability ([1]; first compound 8 µM) | relative viability ([2]; first compound 0.02 µM) | relative viability ([2]; first compound 0.2 µM) | relative viability ([2]; first compound 0.6325 µM) | relative viability ([2]; first compound 2 µM) | relative viability ([3]; first compound 0.02 µM) | relative viability ([3]; first compound 0.2 µM) | relative viability ([3]; first compound 0.6325 µM) | relative viability ([3]; first compound 2 µM) | relative viability ([4]; first compound 0.02 µM) | relative viability ([4]; first compound 0.2 µM) | relative viability ([4]; first compound 0.6325 µM) | relative viability ([4]; first compound 2 µM)
1 | NCI-H650 | 1.08 | 0.977 | 0.598 | 0.767 | 1.07 | 0.313 | 0.312 | 0.326 | 0.288 | 0.316 | 0.278 | 0.244 | 0.263 | 0.823 | 0.674 | 0.45 | 0.387
2 | NCI-H661 | 0.512 | 0.413 | 0.474 | 0.564 | 0.557 | 0.574 | 0.596 | 0.495 | 0.551 | 0.407 | 0.436 | 0.425 | 0.419 | 0.35 | 0.469 | 0.376 | 0.433
3 | NCI-H727 | 0.968 | 0.799 | 0.767 | 0.699 | 1.19 | 0.844 | 0.996 | 0.822 | 0.844 | 0.839 | 0.685 | 0.745 | 0.607 | 0.395 | 0.464 | 0.369 | 0.305
4 | NCI-H838 | 1.21 | 1.02 | 0.638 | 0.972 | 1.03 | 0.48 | 0.447 | 0.359 | 0.291 | 0.196 | 0.223 | 0.19 | 0.174 | 0.414 | 0.402 | 0.306 | 0.269
5 | NCI-H1355 | 1.16 | 1.05 | 0.881 | 0.956 | 1.13 | 0.332 | 0.332 | 0.26 | 0.245 | 0.41 | 0.364 | 0.241 | 0.207 | 0.482 | 0.493 | 0.361 | 0.33
6 | NCI-H1395 | 1.2 | 1.08 | 1.01 | 0.8 | 1.15 | 0.802 | 0.781 | 0.771 | 0.736 | 0.538 | 0.692 | 0.641 | 0.609 | 0.581 | 0.62 | 0.578 | 0.594
7 | NCI-H1437 | 0.884 | 1.01 | 0.593 | 0.856 | 1.1 | 0.522 | 0.308 | 0.28 | 0.237 | 0.306 | 0.221 | 0.161 | 0.225 |  | 0.183 | 0.116 | 0.1
8 | NCI-H1650 | 1.01 | 0.775 | 0.625 | 0.824 | 0.944 | 0.573 | 0.473 | 0.348 | 0.271 | 0.275 | 0.379 | 0.31 | 0.236 | 0.587 | 0.537 | 0.428 | 0.306
9 | NCI-H1651 | 1.07 | 0.836 | 0.736 | 0.829 | 1.09 | 0.598 | 0.613 | 0.321 | 0.264 | 0.512 | 0.467 | 0.283 | 0.272 | 0.523 | 0.57 | 0.412 | 0.444
10 | NCI-H1666 |  | 0.738 | 0.491 | 0.696 | 0.753 | 0.706 | 0.564 | 0.534 | 0.502 | 0.677 | 0.642 | 0.647 | 0.609 | 0.659 | 0.293 | 0.292 | 0.285
11 | NCI-H1734 | 1.06 | 1.08 | 0.893 | 0.986 | 1.44 | 0.536 | 0.518 | 0.499 | 0.396 | 0.349 | 0.346 | 0.271 | 0.264 | 0.496 | 0.49 | 0.427 | 0.303
12 | NCI-H1755 | 1.34 | 1.04 | 0.912 | 1.06 | 1.19 | 0.747 | 0.616 | 0.433 | 0.394 | 0.448 | 0.501 | 0.409 | 0.376 | 0.453 | 0.5 | 0.301 | 0.184
13 | NCI-H1792 | 1.13 | 0.982 |  | 0.947 | 1.12 | 0.514 | 0.473 | 0.27 | 0.202 | 0.688 | 0.696 | 0.352 | 0.29 | 0.337 | 0.243 | 0.113 | 0.0763
14 | NCI-H1793 | 0.731 | 0.778 | 0.533 | 0.795 | 0.787 | 0.617 | 0.469 | 0.487 | 0.557 | 0.285 | 0.299 | 0.274 | 0.243 | 0.37 | 0.376 | 0.303 | 0.247
15 | NCI-H1915 | 1.24 | 1.09 | 0.842 | 0.913 | 1.1 | 0.248 | 0.272 | 0.278 | 0.256 | 0.485 | 0.522 | 0.498 | 0.383 | 0.958 | 0.908 | 1.01 | 0.773
16 | NCI-H1944 | 0.882 | 0.906 | 0.696 | 0.842 | 0.885 | 0.472 | 0.399 | 0.268 | 0.183 | 0.306 | 0.319 | 0.252 | 0.214 | 0.4 | 0.357 | 0.295 | 0.243
17 | NCI-H1975 | 1.27 | 1.03 |  | 0.952 | 1.01 | 0.449 | 0.381 | 0.28 | 0.206 | 0.671 | 0.768 | 0.355 | 0.189 | 0.309 | 0.308 | 0.262 | 0.217
